Like-named read-outs stand apart in the source and are kept apart here.
Assays:
CB1 receptor = molecular target: T1, CB1 receptor (Homo sapiens, UniProt P21554); experiment: CB1R activity (Eurofin Cerep); type: cell-based
T1 construct: purchased Eurofin Cerep ITEM G012
Method: CB1R activity was evaluated at Eurofin Cerep, Le Bois l'Evêque, France ITEM […].

[1] = tested on: Sphingomyelin synthase (SMS); experiment: Sphingomyelin synthase assay; type: biochemical; conditions: MDCK cell lysate
Method: 100 µL assay buffer (50 mM Tris buffer pH 7.5 containing 25 mM KCl, 0.5 mM EDTA, 10 µM NBD-C6 ceramide, 100 µM DOPC, and 0.01% Tween 80), 60 µg MDCK cell lysate, and serial diluted compounds were incubated at 37 ℃ for 1 h. The reaction was terminated and prepared for LC–MS using the same protocol as the GCS assay, however, a NBD-C6-sphingomyelin (Avanti) reference standard was used to quantify the sphingomyelin synthesis.

[2] = molecular target: T2, Cerebroside sulfotransferase (CST) (Homo sapiens, UniProt Q99999); experiment: Cerebroside sulfotransferase assay; type: biochemical; conditions: lysate of CHO cells expressing GAL3ST1
T2 construct: made in house; host or cells: CHO cells stably expressing GAL3ST1 cDNA; MPER lysate
T2 sequence (Q99999 1-423): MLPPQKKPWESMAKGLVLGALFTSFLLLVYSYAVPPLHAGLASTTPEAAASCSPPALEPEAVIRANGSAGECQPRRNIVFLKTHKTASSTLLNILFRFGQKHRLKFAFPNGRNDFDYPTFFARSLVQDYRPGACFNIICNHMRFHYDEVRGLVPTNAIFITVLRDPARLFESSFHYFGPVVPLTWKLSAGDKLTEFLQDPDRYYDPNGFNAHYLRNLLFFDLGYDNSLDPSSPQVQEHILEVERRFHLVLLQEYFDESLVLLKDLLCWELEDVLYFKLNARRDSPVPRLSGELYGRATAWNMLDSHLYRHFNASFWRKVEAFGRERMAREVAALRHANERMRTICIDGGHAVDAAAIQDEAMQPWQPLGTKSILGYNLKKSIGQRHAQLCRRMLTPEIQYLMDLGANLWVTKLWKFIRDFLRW
Method: A 50 µL reaction consisting of 4 µg MPER lysate prepared from CHO cells stably expressing GAL3ST1 cDNA construct (made by BioMarin), 3 µM N-dodecanoyl-NBD-galactosylceramide […] 10 µM PAPS (Sigma) added as substrate (in DMSO/Tween 80), reaction buffer (100 mM Tris/HCl (pH 7.0), 2.5 mM ATP, 20 mM MgCl2), and test compound. The reaction was incubated at 37 ℃ for 2 h then stopped with 100 µL of 3:1 methanol:acetonitrile (containing 500 nM NBD-C6-OH ceramide as an IS). After 1 h shaking, 150 µL 1:2 H2O:ACN was added, mixed, and centrifuged 4000 rpm for 30 min at RT. Supernatant was transferred for LC–MS analysis using the same conditions used for the CGT cellular assay.

wild-type mice = experiment: PND15 wild-type mice tolerability study: blood chemistry and hematology; type: in vivo, mouse; conditions: PND15-PND70, Avg
Method: Maximum obtainable terminal blood collection was taken via cardiac puncture and split. 200 µL into clot-activating tubes for serum processing and the following chemistry panel: AST, ALT, CKMB and electrolytes. 220 µL stored on wet ice and used for CBC.
Animals were euthanized with CO2 followed by cardiac puncture. Blood was collected via cardiac puncture and split for blood chemistry and hematology.

wild-type C57BL/6 mice = experiment: PND3 wild-type mouse repeat dose study: tolerability; type: in vivo
[3] = 2.3 mg/kg IP three times per week
[4] = 5.4 mg/kg IP three times per week

T1 sequence (P21554 whole entry): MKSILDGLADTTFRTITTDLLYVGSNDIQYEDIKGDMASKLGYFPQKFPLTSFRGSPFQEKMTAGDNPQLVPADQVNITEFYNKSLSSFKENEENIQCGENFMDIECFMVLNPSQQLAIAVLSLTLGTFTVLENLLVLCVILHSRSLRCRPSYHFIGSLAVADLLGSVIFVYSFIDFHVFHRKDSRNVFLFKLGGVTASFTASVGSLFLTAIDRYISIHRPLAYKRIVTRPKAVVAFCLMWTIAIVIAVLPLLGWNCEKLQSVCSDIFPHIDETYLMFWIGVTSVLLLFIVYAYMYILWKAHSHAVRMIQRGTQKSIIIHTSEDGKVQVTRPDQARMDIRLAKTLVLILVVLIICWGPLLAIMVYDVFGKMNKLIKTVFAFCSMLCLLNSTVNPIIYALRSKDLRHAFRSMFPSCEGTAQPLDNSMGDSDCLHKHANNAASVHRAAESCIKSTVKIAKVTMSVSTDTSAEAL

C[C@H]1N(c2ccc(Br)cc2)C(=O)N(c2ccc(Br)cc2)C1(O)c1cccc(OC(F)(F)F)c1 (stereo partly drawn) [S202]
potency as a CB1 inverse agonist, change through optimization of S221 (CB1 receptor; S202 relative to S221): reduced tenfold | IC50 (CB1 receptor; antagonist mode, read-out: CB1R antagonist IC50): 2900 nM | IC50 (CB1 receptor; inverse agonist mode, read-out: CB1R inverse agonist IC50): 2100 nM | IC50 (CB1 receptor; read-out: CB1 receptor IC50): 3000 nM | IC50 [1]: > 50000 nM | IC50 [2]: > 50000 nM | #BASO (wild-type mice; [3]): 0.02 10^3cells/µL | #EOS (wild-type mice; [3]): 0.14 10^3cells/µL | #LUC (wild-type mice; [3]): 0.11 10^3cells/µL | #LYMPH (wild-type mice; [3]): 4.3 10^3cells/µL | #MONO (wild-type mice; [3]): 0.12 10^3cells/µL | #NEUT (wild-type mice; [3]): 0.8 10^3cells/µL | #RETIC (wild-type mice; [3]): 291 10^9cells/L | %BASO (wild-type mice; [3]): 0.4% | %EOS (wild-type mice; [3]): 2.4% | %LUC (wild-type mice; [3]): 2% | %LYMPH (wild-type mice; [3]): 78.8% | %MONO (wild-type mice; [3]): 2.3% | %NEUT (wild-type mice; [3]): 14.3% | %RETIC (wild-type mice; [3]): 2.9% | ALT (wild-type mice; [3]): 257.2 IU/L | AST (wild-type mice; [3]): 283.5 IU/L | CH (wild-type mice; [3]): 13.3 pg | CHCM (wild-type mice; [3]): 27.5 g/dL | CHR (wild-type mice; [3]): 14.6 pg | CHm (wild-type mice; [3]): 14 pg | CKMB (wild-type mice; [3]): 250.5 U/L | CL (wild-type mice; [3]): 109.4 mmol/L | HCT (wild-type mice; [3]): 47.9% | HDW (wild-type mice; [3]): 1.9 g/dL | HGB (wild-type mice; [3]): 15.3 g/dL | HGBCell (wild-type mice; [3]): 13.2 g/dL | K (wild-type mice; [3]): 10.5 mmol/L | MCH (wild-type mice; [3]): 15.4 pg | MCHC (wild-type mice; [3]): 31.9 g/dL | MCV (wild-type mice; [3]): 48.2 fL | MPM (wild-type mice; [3]): 1.3 pg | MPV (wild-type mice; [3]): 5.4 fL | NA (wild-type mice; [3]): 148 mmol/L | PDW (wild-type mice; [3]): 37.1% | PLT (wild-type mice; [3]): 1.02e+06 µL⁻¹ | RBC (wild-type mice; [3]): 9.9e+06 µL⁻¹ | RDW (wild-type mice; [3]): 12.2% | WBC (wild-type mice; [3]): 5500 µL⁻¹ | #BASO (wild-type mice; [4]): 0.013 10^3cells/µL | #EOS (wild-type mice; [4]): 0.4 10^3cells/µL | #LUC (wild-type mice; [4]): 0.047 10^3cells/µL | #LYMPH (wild-type mice; [4]): 3.8 10^3cells/µL | #MONO (wild-type mice; [4]): 0.08 10^3cells/µL | #NEUT (wild-type mice; [4]): 0.55 10^3cells/µL | #RETIC (wild-type mice; [4]): 285 10^9cells/L | %BASO (wild-type mice; [4]): 0.35% | %EOS (wild-type mice; [4]): 8.2% | %LUC (wild-type mice; [4]): 0.9% | %LYMPH (wild-type mice; [4]): 77.6% | %MONO (wild-type mice; [4]): 1.6% | %NEUT (wild-type mice; [4]): 11.4% | %RETIC (wild-type mice; [4]): 2.7% | ALT (wild-type mice; [4]): 99.5 IU/L | AST (wild-type mice; [4]): 132.8 IU/L | CH (wild-type mice; [4]): 13.1 pg | CHCM (wild-type mice; [4]): 27.3 g/dL | CHR (wild-type mice; [4]): 14.6 pg | CHm (wild-type mice; [4]): 13.8 pg | CKMB (wild-type mice; [4]): 126.4 U/L | CL (wild-type mice; [4]): 111.3 mmol/L | HCT (wild-type mice; [4]): 50.1% | HDW (wild-type mice; [4]): 1.93 g/dL | HGB (wild-type mice; [4]): 15.9 g/dL | HGBCell (wild-type mice; [4]): 13.7 g/dL | K (wild-type mice; [4]): 9.6 mmol/L | MCH (wild-type mice; [4]): 15.3 pg | MCHC (wild-type mice; [4]): 31.8 g/dL | MCV (wild-type mice; [4]): 48.1 fL | MPM (wild-type mice; [4]): 1.3 pg | MPV (wild-type mice; [4]): 5.82 fL | NA (wild-type mice; [4]): 150.9 mmol/L | PDW (wild-type mice; [4]): 46.63% | PLT (wild-type mice; [4]): 737200 µL⁻¹ | RBC (wild-type mice; [4]): 1.04e+07 µL⁻¹ | RDW (wild-type mice; [4]): 11.8% | WBC (wild-type mice; [4]): 4900 µL⁻¹ | phenotypes (wild-type C57BL/6 mice; daily IP PND3 to PND40, above 0.5 mg/kg): reduced weight gain, mild hind limb gait abnormalities, and some animal deaths | tolerability (wild-type C57BL/6 mice; daily IP PND3 to PND40, lower doses): well tolerated at lower doses
